We go through 20 compounds from ChEMBL document CHEMBL3243932, “Potential antiinflammatory compounds. 3. Compounds derived from acenaphthene and indan” (J Med Chem, 1979).

For data set [1], the system named is Rattus norvegicus. The data set is described as follows: Antiinflammatory activity in rat assessed as reduction of carrageenan-induced foot edema at 100 mg/kg, po administered as two doses. The format is functional.
In data set [2] the test system is Rattus norvegicus. The data set is described as follows: Antiinflammatory activity against rat adjuvant arthritis model assessed as reduction of swelling in non-injected foot at 100 mg/kg, po administered for 16 days. The class given is functional. The note with it: 384 h.
Data set [3] in a line: Acute toxicity in po dosed mouse. The format is organism-based. The conditions noted are these: in vivo.
Data set [4] has as its system Rattus norvegicus. Kind of data set: Antiinflammatory activity in po dosed rat assessed as reduction of carrageenan-induced foot edema administered as two doses. The format is functional, organism-based. (In the carrageenan paw model, swelling and tenderness develop within hours.)
Data set [5] relates to Rattus norvegicus. Kind of data set: Antiinflammatory activity against rat adjuvant arthritis model assessed as reduction of swelling in non-injected foot at 1 mg/kg, po administered for 16 days. The class given is functional. The conditions noted are these: 384 h.
The subject of data set [6] is Rattus norvegicus. Kind of data set: Antiinflammatory activity against rat adjuvant arthritis model assessed as reduction of swelling in non-injected foot at 50 mg/kg, po administered for 16 days. The format is functional. The note with it: 384 h.
Data set [7] concerns Rattus norvegicus. Kind of data set: Antiinflammatory activity in rat assessed as reduction of carrageenan-induced foot edema at 50 mg/kg, po administered as two doses. The class given is functional.
Data set [8] concerns Rattus norvegicus. The data set is described as follows: Antiinflammatory activity against rat adjuvant arthritis model assessed as reduction of swelling in non-injected foot at 33 mg/kg, po administered for 16 days. The class given is functional. The conditions noted are these: 384 h.
Data set [9] relates to Rattus norvegicus. The data set is described as follows: Antiinflammatory activity in rat assessed as reduction of carrageenan-induced foot edema at 25 mg/kg, po administered as two doses. The format is functional.

Calls of active or inactive are those of the source. The calls are words filed in the database; no cut-off is given here.

One may read the inhibition in vivo as the change of the read-out against control, counted positive when it falls. The term LD50 denotes the dose at which mortality reaches 50%. Low readings indicate greater toxicity, high ones lower toxicity.

For `O=C1CC(c2ccccc2)c2ccccc21` (configuration not stated), the values for the inhibition in vivo at 100 mg/kg in the data set with Rattus norvegicus [1] and in the data set with Rattus norvegicus [2] were 48% and 36%, respectively. The same compound came in with an LD50 in data set [3] of 1600 mg/kg.

For `O=C(O)CCc1ccc(CC(=O)O)cc1`, the inhibition entry with Rattus norvegicus [4] is “inactive”.

For the compound `O=C([O-])Cc1ccc2c(c1)CCC2C1CCCCC1.[Na+]` (configuration not stated), the inhibition in vivo at 100 mg/kg in the data set on Rattus norvegicus [1] is 28%. Besides, in [3], the LD50 worked out at 1200 mg/kg.

Take `O=C(O)Cc1ccc2c(c1)C(=O)CC2`: the inhibition in vivo at 100 mg/kg in the data set on Rattus norvegicus [1] came out at 0%. This compound also returned an LD50 in data set [3] of 1600 mg/kg.

Consider `COc1ccc2c(c1)c(CC(=O)O)c(C)n2C(=O)c1ccc(Cl)cc1` [INDOMETHACIN], for which the inhibition in vivo at 1 mg/kg in the data set on Rattus norvegicus [5] came out at 57%.

Regarding `CC1CCc2cc(-c3ccccc3)ccc21` (configuration not stated), the inhibition in vivo at 100 mg/kg in the data set with Rattus norvegicus [1] came out at 35%. Moreover, the inhibition in vivo at 50 mg/kg with Rattus norvegicus [6] was found to be 32%. Also, the LD50 in data set [3] is 1600 mg/kg.

For `O=C(O)Cc1ccc2c(c1)C(=O)/C(=C/c1ccc(Cl)cc1)C2`, the inhibition in vivo at 100 mg/kg in the data set on Rattus norvegicus [1] was 0%; with Rattus norvegicus [2], 43%. In addition, the LD50 in data set [3] was found to be 1600 mg/kg.

For the compound `CCCCC1C(=O)N(c2ccccc2)N(c2ccccc2)C1=O` [PHENYLBUTAZONE], the inhibition in vivo at 50 mg/kg in the data set on Rattus norvegicus [7] came out at 30%; with Rattus norvegicus [6] it was 50%. The inhibition in vivo at 33 mg/kg in the data set with Rattus norvegicus [8] was determined as 42%.

Take `CC(C(=O)O)c1ccc2c3c(cccc13)C(c1ccccc1)C2` (configuration not stated): the inhibition in vivo at 100 mg/kg with Rattus norvegicus [1] is 44%. For the same compound, the inhibition in vivo at 50 mg/kg in the data set on Rattus norvegicus [6] was determined as 50%. Besides, the LD50 in data set [3] stood at 1600 mg/kg.

Turning to `O=C(O)Cc1ccc(C(CC(=O)O)c2ccccc2)cc1` (configuration not stated), the inhibition entry in the data set with Rattus norvegicus [4] is “inactive”.

In the case of `O=C(O)Cc1ccc2c(c1)C(=O)CC2C1CCCCC1` (configuration not stated), the inhibition in vivo at 100 mg/kg in the data set with Rattus norvegicus [1] came out at 8%. In [3], the LD50 came out at 1200 mg/kg.

With `CC(C(=O)O)c1ccc2c(c1)C(=O)/C(=C/c1ccc(Cl)cc1)C2` (configuration not stated), the inhibition in vivo at 100 mg/kg in the data set with Rattus norvegicus [2] is 53%.

On to `C/C=C/C(=O)c1ccc(-c2ccccc2)cc1`, for which the inhibition entry with Rattus norvegicus [4] was “inactive”.

Consider `O=C(O)CC1CC(c2ccccc2)c2ccccc21` (configuration not stated), for which, in the data set on Rattus norvegicus [1], the inhibition in vivo at 100 mg/kg is 0%. The compound also yielded a median lethal dose (LD50) in [3] of 1600 mg/kg.

Regarding `CC1CC(=O)c2cc(-c3ccccc3)ccc21` (configuration not stated), the inhibition in vivo at 100 mg/kg in the data set with Rattus norvegicus [1] worked out at 7%. The LD50 in data set [3] amounted to 1600 mg/kg.

For the compound `O=C(O)Cc1ccc2c3c(cccc13)C(c1ccccc1)C2` (configuration not stated), the values for the inhibition in vivo at 100 mg/kg in the data set with Rattus norvegicus [1] and in the data set on Rattus norvegicus [2] were 53% and 0%, respectively. This compound also came in with an LD50 in data set [3] of 400 mg/kg.

For the compound `O=C(O)Cc1ccc2c(c1)C(=O)/C(=C/c1ccccc1)C2`, the inhibition in vivo at 100 mg/kg in the data set with Rattus norvegicus [1] amounted to 26%; in the data set with Rattus norvegicus [2], 25%. This compound also registered a 50% lethal dose (LD50) in [3] of 1600 mg/kg.

For the compound `C[C@]12CCC(=O)C=C1CC[C@@H]1[C@@H]2[C@@H](O)C[C@@]2(C)[C@H]1CC[C@]2(O)C(=O)CO` [HYDROCORTISONE], in the data set on Rattus norvegicus [7], the inhibition in vivo at 50 mg/kg was 51%.

Regarding `O=C(O)CCC1CC(c2ccccc2)c2ccccc21` (configuration not stated), in the data set on Rattus norvegicus [9], the inhibition in vivo at 25 mg/kg was 0%. The LD50 in [3] came out at 300 mg/kg.

Consider `O=C(O)Cc1ccc(C2CC(=O)c3ccccc32)cc1` (configuration not stated), for which the inhibition in vivo at 100 mg/kg in the data set on Rattus norvegicus [1] is 36%; with Rattus norvegicus [2], 52%. In data set [3], this compound showed an LD50 of 1600 mg/kg.
